Active and inactive are the calls of the source. The calls are words filed in the database; no cut-off is given here.
Tests used:
[1] = system: Mast/stem cell growth factor receptor Kit (Homo sapiens), P10721 [V654A]; conditions: GIST430
[2] = biological target: Mast/stem cell growth factor receptor Kit (Homo sapiens, UniProt P10721); assay: Inhibition of wild type KIT (unknown origin) using biotinylated poly-Glu-Tyr as substrate preincubated for 30 mins followed by substrate addition in presence of ATP by TR-FRET assay
Mast/stem cell growth factor receptor Kit (Homo sapiens, UniProt P10721), sequence (P10721 whole entry): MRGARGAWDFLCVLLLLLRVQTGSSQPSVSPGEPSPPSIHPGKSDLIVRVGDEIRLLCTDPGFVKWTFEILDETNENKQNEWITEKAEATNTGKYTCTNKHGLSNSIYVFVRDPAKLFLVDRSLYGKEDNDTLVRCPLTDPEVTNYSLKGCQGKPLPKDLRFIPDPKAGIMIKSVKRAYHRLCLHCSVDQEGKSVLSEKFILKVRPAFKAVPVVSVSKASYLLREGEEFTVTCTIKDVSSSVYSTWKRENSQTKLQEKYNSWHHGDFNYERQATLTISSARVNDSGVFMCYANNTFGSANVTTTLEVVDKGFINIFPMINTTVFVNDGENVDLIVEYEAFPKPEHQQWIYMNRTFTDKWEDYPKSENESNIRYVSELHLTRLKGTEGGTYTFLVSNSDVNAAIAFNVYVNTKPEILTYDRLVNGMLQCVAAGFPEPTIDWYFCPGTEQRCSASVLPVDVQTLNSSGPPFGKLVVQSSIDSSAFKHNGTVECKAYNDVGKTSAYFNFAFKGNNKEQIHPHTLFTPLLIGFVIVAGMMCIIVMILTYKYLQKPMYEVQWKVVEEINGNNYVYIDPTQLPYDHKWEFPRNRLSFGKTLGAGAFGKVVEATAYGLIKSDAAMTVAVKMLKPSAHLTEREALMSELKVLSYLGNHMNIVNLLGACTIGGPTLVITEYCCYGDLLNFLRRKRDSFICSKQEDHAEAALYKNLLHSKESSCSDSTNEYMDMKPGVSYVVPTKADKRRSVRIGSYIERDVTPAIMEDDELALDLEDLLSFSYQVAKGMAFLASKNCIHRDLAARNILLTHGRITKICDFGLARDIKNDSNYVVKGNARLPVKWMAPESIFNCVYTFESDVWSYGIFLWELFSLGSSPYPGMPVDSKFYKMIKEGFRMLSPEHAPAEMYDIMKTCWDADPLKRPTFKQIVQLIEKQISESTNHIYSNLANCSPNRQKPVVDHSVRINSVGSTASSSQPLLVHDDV

[3] = biological target: Mast/stem cell growth factor receptor Kit (Homo sapiens, UniProt P10721, D816H); assay: Inhibition of KIT D816H mutant (unknown origin) using biotinylated poly-Glu-Tyr as substrate preincubated for 30 mins followed by substrate addition in presence of ATP by TR-FRET assay
Mast/stem cell growth factor receptor Kit (Homo sapiens, UniProt P10721, D816H), sequence (P10721 26-976 D816H limits assumed): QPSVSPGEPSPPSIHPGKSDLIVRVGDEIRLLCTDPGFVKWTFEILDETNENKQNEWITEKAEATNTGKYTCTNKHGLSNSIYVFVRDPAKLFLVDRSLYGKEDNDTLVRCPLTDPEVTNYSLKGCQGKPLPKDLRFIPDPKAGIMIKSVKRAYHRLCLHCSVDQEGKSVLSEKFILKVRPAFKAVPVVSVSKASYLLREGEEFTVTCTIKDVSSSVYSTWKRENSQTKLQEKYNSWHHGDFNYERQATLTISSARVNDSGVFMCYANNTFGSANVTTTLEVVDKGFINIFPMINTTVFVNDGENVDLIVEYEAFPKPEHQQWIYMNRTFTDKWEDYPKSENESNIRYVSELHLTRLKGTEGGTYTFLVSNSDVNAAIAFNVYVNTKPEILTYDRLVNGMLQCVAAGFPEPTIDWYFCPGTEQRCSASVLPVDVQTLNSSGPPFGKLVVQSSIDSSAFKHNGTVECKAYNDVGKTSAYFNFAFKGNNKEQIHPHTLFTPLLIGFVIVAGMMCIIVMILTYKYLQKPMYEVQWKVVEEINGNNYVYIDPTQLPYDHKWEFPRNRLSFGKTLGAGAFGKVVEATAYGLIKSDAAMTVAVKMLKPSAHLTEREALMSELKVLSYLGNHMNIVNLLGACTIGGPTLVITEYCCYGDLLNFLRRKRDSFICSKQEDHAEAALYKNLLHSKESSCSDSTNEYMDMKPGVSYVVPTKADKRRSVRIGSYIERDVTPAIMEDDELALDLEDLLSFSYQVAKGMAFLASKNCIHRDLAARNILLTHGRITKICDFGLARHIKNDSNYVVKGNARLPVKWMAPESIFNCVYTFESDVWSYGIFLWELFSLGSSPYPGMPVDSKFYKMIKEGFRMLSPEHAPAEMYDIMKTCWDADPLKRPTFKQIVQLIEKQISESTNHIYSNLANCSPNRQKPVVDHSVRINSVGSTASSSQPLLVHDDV

GISTT1 [4] = assay: Cytotoxicity against human GISTT1 cells harboring KIT T670I mutant assessed as cell growth inhibition after 72 hrs by CellTiterGlo assay; format: functional; conditions: GISTT1, 72 h
GISTT1 [5] = assay: Cytotoxicity against human GISTT1 cells assessed as cell growth inhibition after 72 hrs by CellTiterGlo assay; format: functional; conditions: GISTT1, 72 h
[6] = Cytotoxicity against human GIST48B cells assessed as cell growth inhibition after 72 hrs by CellTiterGlo assay; format: cell-based; conditions: for GI50 at 72 h: GIST48B cells; for GI50: gist48b, 72 h
[7] = biological target: T1, Mast/stem cell growth factor receptor Kit (Homo sapiens, UniProt P10721, V559D/V654A)
T1 sequence (P10721 26-976 V559D/V654A limits assumed): as the sequence (P10721 26-976 D816H limits assumed) above, with V534D, V629A, H791D counted along it

[8] = biological target: Mast/stem cell growth factor receptor Kit (Homo sapiens, UniProt P10721, T670I/V559D)
Mast/stem cell growth factor receptor Kit (Homo sapiens, UniProt P10721, T670I/V559D), sequence (P10721 26-976 V559D/T670I limits assumed): as the sequence (P10721 26-976 D816H limits assumed) above, with V534D, T645I, H791D counted along it

GISTT1 [9] = assay: Cytotoxicity against human GISTT1 cells harboring KIT D816E mutant assessed as cell growth inhibition after 72 hrs by CellTiterGlo assay; format: functional; conditions: GISTT1, 72 h
[10] = biological target: T1, Mast/stem cell growth factor receptor Kit; remark: listed apart in the source
[11] = biological target: Mast/stem cell growth factor receptor Kit (Homo sapiens, UniProt P10721, V559D/T670I)
Mast/stem cell growth factor receptor Kit (Homo sapiens, UniProt P10721, V559D/T670I), sequence (P10721 26-976 V559D/T670I limits assumed): as the sequence (P10721 26-976 D816H limits assumed) above, with V534D, T645I, H791D counted along it

GISTT1 [12] = conditions: Homo sapiens

Mast/stem cell growth factor receptor Kit (Homo sapiens), P10721 [V654A], sequence (P10721 whole entry V654A): as the sequence (P10721 whole entry) above, with V654A counted along it

SMILES | GI50 [1] | IC50 [2] [nM] | IC50 ([3]; read-out: IC50) [nM] | GI50 (GISTT1 [4]) [nM] | GI50 (GISTT1 [5]) [nM] | GI50 at 72 h [6] [nM] | IC50 [7] [nM] | IC50 [8] [nM] | GI50 (GISTT1 [9]) [nM] | IC50 [10] | IC50 [3] | IC50 [11] | GI50 (GISTT1 [12]) | GI50 [6]
Cc1ccc(C(=O)Nc2ccc(CN3CCN(C)CC3)c(C(F)(F)F)c2)cc1C#Cc1cccnc1 | 333 nM | 2.1 | 138 | 76 | 51 | 2700 | 1100 | 24 | 332 |  |  |  |  | 
Cc1ccc(C(=O)Nc2ccc(CN3CCN(C)CC3)c(C(F)(F)F)c2)cc1C#Cc1ccccn1 | 697 nM | 3.5 |  | 97 | 55 | 3630 |  | 116 | 1670 | Not Active | Not Active |  |  | 
COc1cccnc1C#Cc1cc(C(=O)Nc2ccc(CN3CCN(C)CC3)c(C(F)(F)F)c2)ccc1C | 564 nM | 6.7 |  | 165 | 82 | 3790 |  | 159 | 991 | Not Active | Not Active |  |  | 
Cc1ccc(C(=O)Nc2ccc(CN3CCN(C)CC3)c(F)c2)cc1C#Cc1cnc(N)nc1 | 920 nM | 6.5 | 1710 | 1360 | 31 | 8280 |  |  | 904 | Not Active |  | Not Active |  | 
Cc1ccc(C(=O)Nc2ccc(CN3CCN(C)CC3)cc2)cc1C#Cc1ccccn1 | inactive | 240 |  | 12500 | 7100 |  |  |  |  | Not Active | Not Active | Not Active | inactive | Not Active
Cc1ccc(C(=O)Nc2ccc(CN3CCN(C)CC3)cc2)cc1C#Cc1cccnc1 | 4030 nM | 3.3 |  | 6350 | 150 |  |  |  | 9610 | Not Active | Not Active | Not Active |  | Not Active
Cc1ccc(C(=O)Nc2ccc(CN3CCN(C)CC3)c(C(F)(F)F)c2)cc1C#Cc1ccn2cnnc2c1 | 4140 nM | 2.5 |  | 2970 | 282 | 4150 |  | 2150 |  | Not Active | Not Active |  | inactive | 
Cc1ccc(C(=O)Nc2ccc(CN3CCN(C)CC3)c(C(F)(F)F)c2)cc1C#Cc1ccc(OCc2ccccc2)cn1 | 2000 nM | 121 |  | 4380 | 121 | 1860 |  |  |  | Not Active | Not Active | Not Active | inactive | 
Cc1ccc(C(=O)Nc2ccc(CN3CCN(C)CC3)c(C(F)(F)F)c2)c(F)c1I | inactive | 184 |  | 9510 | 5730 | 3630 |  |  |  | Not Active | Not Active | Not Active | inactive | 
CCN(CC)CCNC(=O)c1c(C)[nH]c(/C=C2\C(=O)Nc3ccc(F)cc32)c1C [SUNITINIB] |  |  |  | 90 | 40 |  |  |  | 5880 |  |  |  |  | Not Active
C#Cc1cc(C(=O)Nc2ccc(CN3CCN(C)CC3)c(C(F)(F)F)c2)ccc1C | inactive | 231 |  | 10100 | 7840 |  |  |  |  | Not Active | Not Active | Not Active | inactive | Not Active
Cc1ccc(C(=O)Nc2ccc(CN3CCN(C)CC3)c(C(F)(F)F)c2)cc1C#Cc1ccn2ccnc2c1 | 723 nM | 1.6 |  | 184 | 59 | 3040 |  | 72 | 2290 | Not Active | Not Active |  |  | 
Cc1ccc(C(=O)Nc2ccc(CN3CCN(C)CC3)c(C(F)(F)F)c2)cc1C#Cc1ccc(N)nc1 | 404 nM | 2 | 140 | 67 | 42 | 2240 | 908 | 28.8 | 221 |  |  |  |  | 
Cc1ccc(C(=O)Nc2ccc(CN3CCN(C)CC3)cc2)cc1C#Cc1cnc(N)nc1 | 2060 nM | 2.6 |  | 1220 | 33 | 6880 |  |  | 1270 | Not Active | Not Active | Not Active |  | 
Cc1ccc(C(=O)Nc2ccc(CN3CCN(C)CC3)c(F)c2)cc1C#Cc1cccnc1 | 1640 nM | 2.3 |  | 3290 | 57 | 12000 |  |  | 5360 | Not Active | Not Active | Not Active |  | 
CCc1c(I)cccc1C(=O)Nc1ccc(CN2CCN(C)CC2)c(C(F)(F)F)c1 | 15900 nM | 1040 |  | 7610 | 11000 | 9940 |  |  |  | Not Active | Not Active | Not Active | inactive | 
Cc1ccc(C(=O)Nc2ccc(CN3CCN(C)CC3)c(C(F)(F)F)c2)cc1I | 3900 nM | 6.8 |  | 3340 | 896 | 4880 |  |  | 9890 | Not Active | Not Active | Not Active |  | 
Cc1ccc(C(=O)Nc2ccc(CN3CCN(C)CC3)c(C(F)(F)F)c2)cc1C#Cc1cnc(N)c2ccccc12 | 926 nM | 4 | 104 | 301 | 191 | 2060 | 313 | 18.2 | 645 |  |  |  |  | 
COCCNc1ncc(C#Cc2cc(C(=O)Nc3ccc(CN4CCN(C)CC4)c(C(F)(F)F)c3)ccc2C)cn1 | 481 nM | 3.3 | 2610 | 198 | 119 | 5130 | 252 | 107 | 704 |  |  |  |  | 
Cc1ccc(C(=O)Nc2ccc(CN3CCN(C)CC3)c(C(F)(F)F)c2)c(C)c1I | inactive | 556 |  | 15300 | 10000 |  |  |  |  | Not Active | Not Active | Not Active | inactive | Not Active
Cc1ccc(C(=O)Nc2ccc(CN3CCN(C)CC3)c(C(F)(F)F)c2)cc1C#Cc1cnc(N)c(C)c1 | 307 nM | 2.1 | 99.3 | 117 | 59 | 2090 | 777 | 29.8 | 474 |  |  |  |  | 
Cc1ccc(C(=O)Nc2ccc(CN3CCN(C)CC3)c(C(F)(F)F)c2)cc1C#Cc1ccc(N)nn1 | 459 nM | 5.8 | 2270 | 89 | 54 | 6250 |  | 150 | 580 | Not Active |  |  |  | 

Source: ChEMBL document CHEMBL4017543, “Inhibitors to Overcome Secondary Mutations in the Stem Cell Factor Receptor KIT” (J Med Chem, 2017)
